Values after ≈ are worked out from the molar mass of the structure shown. Active and inactive are the calls of the source. No cut-off for these calls is given here.
What was measured:
[1] = Selectivity index, ratio of IC50 for cytotoxicity against rat H9c2 cells assessed as reduction in cell viability to IC50 for antitrypanosomal against Trypanosoma cruzi Tulahuen trypomastigotes infected in rat H9c2 cells; assay type: toxicity, cell-based; conditions: read-out: Ratio IC50
[2] = Intrinsic clearance in human liver microsomes assessed per mg protein measured after 60 mins in presence of NADPH generating system by LC-MS analysis; assay type: ADME, Microsome; conditions: read-out: CLH
[3] = Metabolic stability in human liver microsomes assessed as half-life measured after 60 mins in presence of NADPH generating system by LC-MS analysis; assay type: ADME, Microsome
Trypanosoma cruzi [4] = assay: Antitrypanosomal activity against Trypanosoma cruzi Tulahuen strain trypomastigotes infected in rat H9c2 cells incubated for 72 hrs by DRAQ5 DNA dye based imaging analysis; assay type: functional, organism-based; conditions: H9c2, 72 h
[5] = Selectivity index, ratio of IC50 for cytotoxicity against human HEK293 cells assessed as reduction in cell viability to IC50 for antitrypanosomal activity against Trypanosoma brucei brucei Lister 427 blood stream form; assay type: toxicity, cell-based; conditions: read-out: Ratio IC50
[6] = Metabolic stability in mouse liver microsomes assessed as degradation half-life measured after 60 mins in presence of NADPH generating system by LC-MS analysis; assay type: ADME, Microsome; conditions: read-out: T50
[7] = test system: Trypanosoma brucei brucei; assay: Antitrypanosomal activity against Trypanosoma brucei brucei Lister 427 strain blood stream forms incubated for 48 hrs by resazurin dye based fluorescence assay; assay type: functional, organism-based; conditions: Lister 427, 48 h
[8] = Metabolic stability in human liver microsomes assessed as degradation half-life measured after 60 mins in presence of NADPH generating system by LC-MS analysis; assay type: ADME, Microsome; conditions: read-out: T50
[9] = Intrinsic clearance in mouse liver microsomes assessed per mg protein measured after 60 mins in presence of NADPH generating system by LC-MS analysis; assay type: ADME, Microsome; conditions: read-out: CLH
[10] = Kinetic solubility of compound at pH 6.5 phosphate buffer by nephelometry; assay type: physicochemical; conditions: read-out: Kinetic_solubility
[11] = Partition coefficient, log D of compound at pH 7.4 by HPLC; assay type: physicochemical; conditions: octanol/water
Trypanosoma cruzi [12] = assay: Antitrypanosomal activity against Trypanosoma cruzi Tulahuen C4 strain amastigotes infected in rat L6 cells measured after 96 hrs by inverted microscopy analysis; assay type: functional, organism-based; conditions: Tulahuen C4, L6, 96 h
L6 = assay: Cytotoxicity against rat L6 cells assessed as reduction in cell viability measured after 72 hrs by alamar blue dye based fluorimetry analysis; conditions: L6, 72 h
[13] = Protein binding in human plasma by HPLC-MS analysis; assay type: ADME, cell-free; conditions: read-out: PPB (converted)
Leishmania donovani = assay: Antileishmanial activity against Leishmania donovani MHOM/ET/67/L82 amastigotes measured after 72 hrs by alamar blue dye based fluorimetry analysis; assay type: functional, organism-based; conditions: MHOM/ET/67/L82, 72 h
[14] = Kinetic solubility of compound at pH 2 by nephelometry; assay type: physicochemical; conditions: buffer, read-out: Kinetic_solubility
[15] = test system: Trypanosoma brucei rhodesiense; assay: Antitrypanosomal activity against Trypanosoma brucei rhodesiense STIB900 trypomastigotes incubated for 72 hrs by resazurin dye based fluorescence assay; assay type: functional, organism-based; conditions: STIB900, 72 h
[16] = Tmax in Balb/c mouse at 50 mg/kg, po administered via gavage in presence of 1-aminobenzotriazole; assay type: ADME, organism-based; conditions: in vivo
Trypanosoma cruzi [17] = assay: Antitrypanosomal activity against Trypanosoma cruzi Brazil trypomastigotes coexpressing luciferase infected in BALB/c mouse model assessed as reduction in parasite load at 50 mg/kg, po BID administered for 5 days measured after 10 days; assay type: functional, organism-based; conditions: time 10.0 day
[18] = Toxicity in Balb/c mouse infected with Trypanosoma cruzi Brazil trypomastigotes coexpressing luciferase assessed as low resistance to handling at 50 mg/kg, po BID administered for 5 days; assay type: organism-based; conditions: in vivo, 120 h, time 5 day
[19] = Toxicity in Balb/c mouse infected with Trypanosoma cruzi Brazil trypomastigotes coexpressing luciferase assessed as hunched-back posture at 50 mg/kg, po BID administered for 5 days; assay type: organism-based; conditions: in vivo, 120 h, time 5 day
[20] = Toxicity in Balb/c mouse infected with Trypanosoma cruzi Brazil trypomastigotes coexpressing luciferase assessed as ruffled fur at 50 mg/kg, po BID administered for 5 days; assay type: organism-based; conditions: in vivo, 120 h, time 5 day
[21] = Dose normalized Cmax in Balb/c mouse at 50 mg/kg, po administered via gavage in presence of 1-aminobenzotriazole; assay type: ADME, organism-based; conditions: in vivo
[22] = Dose normalized AUClast in Balb/c mouse at 50 mg/kg, po administered via gavage; assay type: ADME, organism-based; conditions: in vivo
[23] = AUClast (0 to t) in Balb/c mouse at 50 mg/kg, po administered via gavage; assay type: ADME, organism-based; design: time 0 - last, route oral, dose 50 mg/kg; conditions: in vivo
[24] = Tmax in Balb/c mouse at 50 mg/kg, po administered via gavage; assay type: ADME, organism-based; conditions: in vivo
Trypanosoma cruzi [25] = assay: Antitrypanosomal activity against Trypanosoma cruzi Brazil trypomastigotes coexpressing luciferase infected in BALB/c mouse model assessed as reduction in parasite load at 50 mg/kg, po BID administered for 5 days followed by cyclophosphamide addition 30 days post last dose and measured 10 days post cyclophosphamide addition; assay type: functional, organism-based; conditions: time 45.0 day
[26] = Cmax in Balb/c mouse at 50 mg/kg, po administered via gavage in presence of 1-aminobenzotriazole; assay type: ADME, organism-based; design: route oral, dose 50 mg/kg; conditions: in vivo
[27] = Dose normalized Cmax in Balb/c mouse at 50 mg/kg, po administered via gavage; assay type: ADME, organism-based; conditions: in vivo
[28] = Cmax in Balb/c mouse at 50 mg/kg, po administered via gavage; assay type: ADME, organism-based; design: route oral, dose 50 mg/kg; conditions: in vivo
[29] = Dose normalized AUClast in Balb/c mouse at 50 mg/kg, po administered via gavage in presence of 1-aminobenzotriazole; assay type: ADME, organism-based; conditions: in vivo
[30] = AUClast (0 to t) in Balb/c mouse at 50 mg/kg, po administered via gavage in presence of 1-aminobenzotriazole; assay type: ADME, organism-based; design: route oral, time 0 - last, dose 50 mg/kg; conditions: in vivo

microsomal CLint [2] [µL/min/mg]	half-life [3] [min]	IC50 (Trypanosoma cruzi [4]) [µM]	half-life [6] [min]	IC50 [7] [µM]	half-life [8] [min]	microsomal CLint [9] [µL/min/mg]	Structure (SMILES)	selectivity ratio [1]	selectivity ratio [5]	also measured
177	8	0.25	–	–	–	–	CCN(CC)C(=O)NCCc1csc(-c2ccc(F)cc2F)n1	> 199	–	–
160	–	0.03	< 2	0.024	11	> 1600	O=C(NCCc1csc(-c2ccc(F)cc2)n1)N1CCCCC1	> 1580	431	–
177	–	0.32	–	–	10	–	O=C(NCCc1csc(-c2ccccc2)n1)N1CCCC1	–	–	solubility kinetic [10]: 50 µg/mL (≈ 166 µM); logD [11]: 2.8; IC50 (Trypanosoma cruzi [12]): 0.096 µM; IC50 (L6): 144 µM; fraction unbound [13]: 0.14; IC50 (Leishmania donovani): 17 µM; solubility kinetic [14]: > 100 µg/mL; IC50 [15]: 0.046 µM
–	–	–	–	–	–	–	O=C(NCCc1csc(-c2ccccc2)n1)c1ccccc1F	–	–	IC50 (Trypanosoma cruzi [12]): 1.1 µM; IC50 (L6): 79 µM; IC50 (Leishmania donovani): 11 µM; IC50 [15]: 0.42 µM
231	6	0.13	–	–	–	–	O=C(NCCc1csc(-c2ccc(F)cc2F)n1)c1cc(F)ccc1F	> 398	–	–
445	–	–	< 2	0.026	4	> 1600	O=C(NCCc1csc(-c2cccc(F)c2)n1)N1CCCCC1	–	398	–

Structure (SMILES)	microsomal CLint [2] [µL/min/mg]	half-life [3] [min]	IC50 (Trypanosoma cruzi [4]) [µM]	half-life [6] [min]	IC50 [7] [µM]	half-life [8] [min]	microsomal CLint [9] [µL/min/mg]	selectivity ratio [1]	selectivity ratio [5]	also measured
O=C(NCCc1csc(-c2ccc(F)cc2F)n1)N1CCCCC1	225	5	0.02	< 2	0.024	8	> 1600	> 3160	433	Tmax [16]: 30 min; Activity (Trypanosoma cruzi [17]): Active; Activity [18]: Toxic; Activity [19]: Toxic; Activity [20]: Toxic; Cmax/dose [21]: 142 kg·ng/mL/mg; AUClast/dose [22]: 2.54 ng·h/mL/mg/kg; AUC(0-t) [23]: 127 ng·h/mL; Tmax [24]: 15 min; Activity (Trypanosoma cruzi [25]): inactive; Cmax [26]: 7090 ng/mL; Cmax/dose [27]: 4.3 kg·ng/mL/mg; Cmax [28]: 212 ng/mL; AUClast/dose [29]: 295 ng·h/mL/mg/kg; AUC(0-t) [30]: 14800 ng·h/mL

From ChEMBL document CHEMBL4715758, “Hit-to-Lead Optimization of a Novel Class of Potent, Broad-Spectrum Trypanosomacides” (J Med Chem, 2016)
